# Counter-ions that a name gives are not always drawn.
# Tests used:
# [1] = test system: MeWo, SK-Mel-2, SK-Mel-334.2, SK-Mel-239 human melanoma cells; assay: Subcutaneous human melanoma tumor growth in immunocompromised mice; assay type: in vivo
# Description: (§1) All data are represented as mean±SEM.
# as §1
# [2] = biological target: T1, LXRβ (Homo sapiens, UniProt P55055); conditions: LiSA, unit inferred; cited from earlier work
# T1 sequence (P55055 184-460 limits assumed): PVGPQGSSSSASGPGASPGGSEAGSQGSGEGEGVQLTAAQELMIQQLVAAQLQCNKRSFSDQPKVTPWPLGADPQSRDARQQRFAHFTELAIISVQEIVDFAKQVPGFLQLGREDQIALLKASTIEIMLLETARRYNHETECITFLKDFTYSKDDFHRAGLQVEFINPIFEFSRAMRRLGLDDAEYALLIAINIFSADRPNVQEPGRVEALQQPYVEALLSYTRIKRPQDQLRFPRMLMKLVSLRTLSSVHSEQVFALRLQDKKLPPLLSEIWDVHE
# T1 sequence (Q15788 676-700 partner limits assumed): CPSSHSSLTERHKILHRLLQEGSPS
# [3] = test system: MeWo cells; assay: Orthotopic metastasis assay after tumor excision; assay type: in vivo, human; conditions: chow 100 mg/kg for 1 month
# Procedure: To determine the effect of GW3965 treatment on lung colonization by melanoma cells dissociated from an orthotopic site, 1×10^6 MeWo cells expressing a luciferase reporter were subcutaneously injected into both lower flanks of NOD Scid mice. Upon the formation of tumors measuring 300 mm^3 in volume, the tumors were excised and the mice were randomly assigned to a control diet or a GW3965-supplemented diet (100 mg/kg) treatment. One month after tumor excision, the lungs were extracted and lung colonization was measured by ex vivo bioluminescence imaging. To histologically confirm the extent of melanoma lung colonization, lungs were then fixed in 4% PFA overnight, paraffin-embedded, section into […] increments and stained for human vimentin (VP-V684, Vector Laboratories).
# [4] = test system: MeWo-LM2 cells, MeWo brain metastatic derivative cells; assay: Systemic and brain metastasis after intracardiac injection into athymic nude mice; assay type: in vivo, human; conditions: diet 100 mg/kg
# Procedure: After 8 hours, the transfection media was replaced with fresh media. After 48 hours, 1×10^5 cells were injected intravenously into NOD-SCID mice to assess lung metastatic colonization or through intracardiac injection into athymic nude mice to assess systemic metastasis. For cell invasion and endothelial recruitment in vitro assays, the cells were used 96 hours post-transfection.
# Melanoma cells used for in vivo metastasis assays were transduced with a stably expressed retroviral construct encoding a luciferase reporter gene (Ponomarev et al., 2004), allowing us to monitor the in vivo progression of melanoma cells by bioluminescence imaging. The following numbers of melanoma cells, resuspended in 100 μL, of PBS, were injected intravenously via the tail-vein: 4×10^4 MeWo cells, 2.5×10^5 HT-144 cells, 2×10^5 SK-Mel-334.2 cells, 5×10^4B16F10 cells, and 1×10^5 YUMM cells. The MeWo, HT-144, and SK-Mel-334.2 cells were injected into 6-8 week-old sex-matched NOD scid mice, while the B16F10 and YUMM cells were injected into 6-8 week-old sex-matched C57BL/6 mice. […] To assess the effect of GW3965 treatment on brain metastasis, 1×10^5 MeWo brain-metastatic derivatives were injected intracardially into athymic nude mice. Immediately following injection, mice were randomly assigned to a control diet or GW3965-supplemented diet (100 mg/kg). […]
# [5] = test system: endothelial cells recruited into matrigel plugs; assay: In vivo matrigel plug assay; parameters: species or system mouse; conditions: VEGF 400 ng/mL + ApoE3 10 μg/mL
# Procedure: 10 μg/mL recombinant human ApoE3 (4696, BioVision), 10 μg/mL BSA (A2153, Sigma Aldrich), or 400 ng/ml VEGF were mixed with matrigel (356231, BD Biosciences) as indicated. 400 μL of matrigel containing the indicated recombinant proteins were injected subcutaneously just above the ventral flank of immunocompromised NOD-SCID mice. Plugs were extracted on day 3 post-injection and fixed in 4% paraformaldehyde for 48 hours. Plugs were then paraffin-embedded and sectioned at 5-μm-thick increments. Plug cross-sectional sections were immunohistochemically stained using a primary antibody against the mouse endothelial antigen MECA-32 (Developmental Studies Hybridoma Bank, The University of Iowa, IA), detected by peroxidase-conjugated secondary antibody, and subsequently visualized by DAB oxidization. To quantify the extent of endothelial cell invasion into each matrigel plug, the number of endothelial cells was counted in 4-5 random fields for each plug, and the average number of endothelial cells per given plug area was calculated.
# [6] = test system: HUVEC; assay: Endothelial migration and chemotaxis assay (cancer cell-free); assay type: cell-based, human; conditions: LRP8 receptor-dependent
# Procedure: Serum-starved HUVEC's were pulsed with Cell Tracker Red CMTPX dye for 45 minutes and seeded into HTS Fluoroblock trans-well inserts at a concentration of 1×10^5 HUVEC's in 0.5 mL starvation media per each insert. The assay was allowed to proceed for 16-18 hours at 37° C., and the inserts were processed and analyzed as described above (See Matrigel Invasion Assay).
# HUVEC's were serum-starved in 0.2% FBS EGM-2 media for 16 hours and labeled with Cell Tracker Red CMTPX dye for 45 minutes. Meanwhile, the indicated amounts (1-5 μg) of recombinant human ApoE3 or BSA were mixed with 250 μL of matrigel (356231, BD Biosciences) and allowed to solidify at the bottom of a 24-well plate for 30 min. 250 μL of HUVEC EGM-2 media containing 0.2% FBS was then added to each matrigel-coated well, and […] HTS Fluoroblock inserts were fitted into each well. 1×10^5 HUVEC's, resuspended in 0.5 mL of starvation media, were seeded into each insert and allowed to migrate along the matrigel gradient for 16-18 hours at 37° C. Upon completion of the assay, the inserts were mounted on slides and analyzed as described above (See Matrigel Invasion Assay).
Compound,"suppression of growth of SK-Mel-239 vemurafenib-resistant line ([1]; diet 100 mg/kg, NOD Scid gamma mice) [%]","overall survival time, MeWo and SK-Mel-334.2 xenografts ([1]; immunocompromised mice, chow 100 mg/kg after tumor establishment)","tumor growth inhibition, MeWo ([1]; oral in diet) [%]","tumor growth inhibition, SK-Mel-2 ([1]; oral in diet) [%]","tumor growth inhibition, SK-Mel-334.2 ([1]; oral in diet) [%]","growth of in vivo-derived DTIC-resistant MeWo tumors ([1]; oral, diet 100 mg/kg, NOD Scid gamma mice)",EC50 [2] [nM],inhibition of lung colonization by disseminated melanoma cells post-tumor excision [3] [fold],systemic dissemination and brain colonization [4],suppression of VEGF-induced endothelial recruitment in vivo into subcutaneous matrigel plugs [5],endothelial migration in trans-well and gradient-based chemotactic assay [6]
"O=C(O)Cc1cccc(OCCCN(Cc2cccc(C(F)(F)F)c2Cl)CC(c2ccccc2)c2ccccc2)c1 [GW3965 2, 3-[3-[N-(2-Chloro-3-trifluoromethylbenzyl)-(2,2-diphenylethyl)amino]propyloxy]phenylacetic acid hydrochloride]",72,substantially prolonged,70,49,73,strongly inhibited,30,17,inhibited,,
"recombinant human ApoE3: recombinant human ApoE3 (4696, BioVision)",,,,,,,,,,greater than 40 fold,sufficient to inhibit

# Reference: US9399028B2, “Treatment of drug resistant cancer” (ROCKEFELLER UNIVERSITY (THE), priority 2012, dated 2016)
